Reference: patent US10413541B2, “Oxabicycloheptanes and oxabicycloheptenes for the treatment of depressive and stress disorders” (LIXTE BIOTECHNOLOGY, INC., priority 2015, dated 2019)

Legend:
[1] = tested on: C57Bl/6J mice; assay: Re-exposure to the context test (freezing) after FsE; type: in vivo; details: LB100 ip 6-8 h after FsE; one day after FsE
Method: (§1) The inescapable shock procedure was previously described in Stamatakis and Stuber 2012. Briefly, we placed mice into standard mouse behavioral chambers (Imetronics) equipped with a metal grid floor. We let them to habituate at the new environment for 5 m. In a 20 m session animals received either 19 or 0 unpredictable foot shocks (1 mA, 500 ms) with an interstimulus interval of 30, 60 or 90 s. We anesthetized mice for patch-clamp electrophysiology 1 h, 24 h, 7 d, 14 d or 30 d after the session ended.
(§2) For LB treatment experiments, mice were injected with LB (1.5 mg/Kg i.p.) or saline 6-8 hours after the FsE. The effects of the treatment on the LHb excitability and GABAB-GIRKs currents as well as the behavioural assay were assessed at day 1 or 7. For both electrophysiology and behaviour once treated the animal were housed in groups of 4-6 and let undisturbed until the day of the test.
For this experiment mice were re-exposed 24 h after to the chamber where they received (or not) shocks for a total duration of 5 m. […] The behavior was scored according to a 5-sec instantaneous time-sampling procedure every 25 sec (Fanselow and Bolles 1979). The observer scored the animal as freezing, scanning or active at that instant and then proceeded to the next chamber. […] Thus each animal was scored […], yielding 10 observations for each mouse for total 5 minutes session. […]

[2] = tested on: GIRK channels; assay: GTPγS-induced Ba2+-sensitive outward current (I-GTPγS) in LHb neurons of brain slices; type: cell-based, mice; details: LB100 in the bath; for Ba2+ sensitive I-GTPγS current: GTPγS 100 μM internal
Method: (§3) Animals were anesthetized with Ketamine/Xylazine (50 mg/10 mg Kg-1 i.p.; Sigma-Aldrich, France). The preparation of LHb-containing brain slices was done in bubbled ice-cold 95% O2/5% CO2-equilibrated solution containing (in mM): cholineCl 110; glucose 25; NaHCO3 25; MgCl2 7; ascorbic acid 11.6; Na+-pyruvate 3.1; KCl 2.5; NaH2PO4 1.25; CaCl2 0.5. Sagittal slices (250 μm) were stored at room temperature in 95% O2/5% CO2-equilibrated artificial cerebrospinal fluid (ACSF) containing (in mM): NaCl 124; NaHCO3 26.2; glucose 11; KCl 2.5; CaCl2 2.5; MgCl2 1.3; NaH2PO4 1. Recordings (flow rate of 2.5 ml/min) were made under an Olympus-BX51 microscope (Olympus, France) at 32° C. Currents were amplified, filtered at 5 kHz and digitized at 20 kHz. Access resistance was monitored by a step of −4 mV (0.1 Hz). Experiments were discarded if the access resistance increased more than 20%.
Cell-attached recordings in ACSF were performed in GΩ seal with a Vc=0 and Hc=0. Whole-cell voltage clamp recordings were achieved to measure GABAB-GIR currents in presence of Bicuculine (10 μM), NBQX (20 μM) and AP5 (50 μM). […] GABAB-GIRK currents were confirmed by antagonism with either 10 μM of CGP54626, a specific GABAB antagonist or 1 mM Ba^2, a selective inhibitor of inward rectifiers. For the GTPγS experiment, 100 μM of GTPγS was added to the internal solution in place of Na3GTP.

[3] = target: PP2A (Homo sapiens, UniProt P67775); details: cited from earlier work
[4] = tested on: LHb neurons; assay: Current-clamp excitability (evoked action potentials, input-output curve) of LHb neurons in slices; type: cell-based, mice; details: LB100 0.1 μM in the bath
Method: as §3
The internal solution to measure GABAB-GIRK currents and neuronal excitability contained 140 mM potassium gluconate, 4 mM NaCl, 2 mM MgCl2, 1.1 mM EGTA, 5 mM HEPES, 2 mM Na2ATP, 5 mM sodium creatine phosphate, and 0.6 mM Na3GTP (pH 7.3), with KOH. When we measured the synaptic inhibitory or excitatory release the internal solution contained (in mM): CsCl 130; NaCl 4; MgCl2 2; EGTA 1.1; HEPES 5; Na2ATP 2; Na+-creatine-phosphate 5; Na3GTP 0.6, and spermine 0.1. The liquid junction potential was −3 mV. For cell-attached recordings the internal solution consisted in ACSF.
For the Okadaic acid (OA) and the CaMKII inhibitor KN93 experiments, respectively 100 nM of OA or 10 μM of KN93 were added in the internal solution. For the PP2A inhibitor LB100 experiments, LB100 (0.1 μM) was applied in the bath. Miniature excitatory postsynaptic currents (mEPSCs) were recorded in voltage-clamp mode at −60 mV in presence of bicuculine (10 μM) and TTX (1 μM). Miniature inhibitory postsynaptic currents (mIPSCs) were recorded (−60 mV) in presence of NBQX (20 μM) and TTX (1 μM). EPSCs and IPSCs were evoked through an ACSF filled monopolar glass electrode placed 200 μm from the recording site in the stria medullaris. AMPA:NMDA ratios of evoked-EPSC were obtained by AMPA-EPSC −60 mV/NMDA-EPSCs at +40 mV. Rectification Index (RI) was computed by […]-60/AMPA-EPSC+40. For the experiments in which high-frequency stimulation trains were used to determine presynaptic release probability, QX314 (5 mM) was included in the internal solution to prevent the generation of sodium spikes. Current-clamp experiments, were performed by a series of current steps (negative to positive) injected to induce action potentials (5-10 pA injection current per step, 800 ms).

[5] = tested on: C57Bl/6J mice; assay: Forced swim test after FsE; type: in vivo; details: for FsE-driven impairment in the forced swim test (depressive-like phenotype): LB100 ip 6-8 h after FsE, 7 days after FsE
Method: as §1, §2
Forced swim test was conducted under normal light condition as previously described (Meye, Valentinova, Lecca et al 2015). Mice were placed in a cylinder of water (temperature 23-25° C.; 14 cm in diameter, 27 cm in height for mice) for six min. The depth of water was set to prevent animals from touching the bottom with their hind limbs. Animal behavior was videotracked from the top (Viewpoint, France). The latency to the first immobility event and the immobility time of each animal spent during the test was counted online by two independent observer blind of the animal treatments. Immobility was defined as floating or remaining motionless, which means absence of all movement except motions required to maintain the head above the water.

[6] = LB-100 ip 6-8 h after FsE, FST 7 days after FsE

PP2A, sequence (P67775 whole entry): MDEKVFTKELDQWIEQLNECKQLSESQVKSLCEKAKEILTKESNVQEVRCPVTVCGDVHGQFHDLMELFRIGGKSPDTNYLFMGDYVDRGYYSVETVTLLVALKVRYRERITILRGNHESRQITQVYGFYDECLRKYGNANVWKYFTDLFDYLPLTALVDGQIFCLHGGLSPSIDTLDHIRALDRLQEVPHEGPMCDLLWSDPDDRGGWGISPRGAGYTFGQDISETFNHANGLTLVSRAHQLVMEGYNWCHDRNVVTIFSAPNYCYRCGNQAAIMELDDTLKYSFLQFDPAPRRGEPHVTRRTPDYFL
PP2A, sequence (P30153 whole entry partner): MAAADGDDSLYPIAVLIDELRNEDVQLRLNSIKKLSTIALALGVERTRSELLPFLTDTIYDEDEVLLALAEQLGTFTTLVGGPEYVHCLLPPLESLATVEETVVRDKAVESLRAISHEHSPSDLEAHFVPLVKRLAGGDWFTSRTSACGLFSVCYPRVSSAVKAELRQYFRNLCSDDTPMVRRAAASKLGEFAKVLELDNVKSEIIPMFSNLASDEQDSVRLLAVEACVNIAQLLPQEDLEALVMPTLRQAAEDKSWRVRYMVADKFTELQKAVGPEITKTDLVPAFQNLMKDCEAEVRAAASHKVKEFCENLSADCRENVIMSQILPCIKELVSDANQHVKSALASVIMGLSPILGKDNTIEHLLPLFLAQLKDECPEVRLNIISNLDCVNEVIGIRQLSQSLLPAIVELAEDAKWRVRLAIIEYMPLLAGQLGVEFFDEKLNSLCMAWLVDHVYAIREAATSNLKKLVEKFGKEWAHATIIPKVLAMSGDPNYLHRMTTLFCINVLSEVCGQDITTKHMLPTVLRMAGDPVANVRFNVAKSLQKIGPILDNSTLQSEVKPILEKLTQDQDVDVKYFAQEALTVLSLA

## CN1CCN(C(=O)C2C(C(=O)O)[C@H]3CC[C@@H]2O3)CC1 (some centres unmarked) [LB100]
[1]
  Freezing score in the re-exposure to the context test: did not affect
[2]
  Ba2+ sensitive I-GTPγS in FsE animals vs CTRL: restored
[2]; CTRL mice
  Ba2+ sensitive I-GTPγS current: 94.27±13.29 pA
[2]; FsE mice
  Ba2+ sensitive I-GTPγS current: 110.6±20.79 pA
[2]; listed as LB-100
  Ba2+ sensitive I-GTPγS in FsE animals vs CTRL: comparable to the control group
[3]; 1.5 mg/Kg (Lu et al., 2009b)
  Duration of inhibition of PP2A activity: about 12 hours
  Time of peak of PP2A-inhibiting activity: ~8 h
[3]; in vitro in human cancer cells and in xenografts of human tumor cells in mice when given parenterally
  PP2A inhibition: inhibitor of PP2A
[4]
  FsE-induced hyperexcitability of LHb neurons (input-output curve, CTRL vs FsE): completely abolished
[4]; listed as LB-100
  FsE-induced hyperexcitability of LHb neurons (input-output curve, CTRL vs FsE): comparable to control conditions
[5]
  FsE-driven impairment in the forced swim test (depressive-like phenotype): sufficient to rescue the impairment
[5]; listed as LB-100
  FsE-driven impairment in the forced swim test (depressive-like phenotype): behavioral normalization
[5]; [6]
  Latency to the first immobility, control vs FsE group: comparable
  Total immobility, control vs FsE group: comparable
